# Laboratory results published in ChEMBL document CHEMBL1201862, “PubChem BioAssay data set” (2004).
# Several values for one entry are separate records, joined by “and”; a condition that tells them apart may be missing. Identical values can stand only once.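 All cell lines were grown in 96-well plates and treated with compound for 48 hours. At the GI50, growth is halved.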 Activity calls are given as the source filed them. Cut-off read from the data, not from the text of the source: active = GI50 up to about 1.1 µM and inactive = higher.
# Experiments:
# Test in all cases: inhibition of tumour cell growth, NCI panel, 48 h
# [1] = test system: A498
# [2] = test system: SNB-75
# [3] = test system: T47D
# [4] = test system: HOP-92
# [5] = test system: OVCAR-5
# [6] = test system: OVCAR-3
# [7] = test system: Hs-578T
# [8] = test system: TK-10
# [9] = test system: SF-295
# [10] = test system: HCC 2998
# [11] = test system: HT-29
# [12] = test system: DU-145
# [13] = test system: BT-549
# [14] = test system: OVCAR-4
# [15] = test system: MOLT-4
# [16] = test system: RPMI-8226
# [17] = test system: SK-MEL-2
# [18] = test system: SF-268
# [19] = test system: PC-3
# [20] = test system: MDA-MB-435
# [21] = test system: CAKI-1
# [22] = test system: COLO 205
# [23] = test system: NCI-H23
# [24] = test system: OVCAR-8
# [25] = test system: NCI-H226
# [26] = test system: SN12C
# [27] = test system: K562
# [28] = test system: SK-MEL-5
# [29] = test system: UO-31
# [30] = test system: RXF 393
# [31] = test system: SK-OV-3
# [32] = test system: CCRF-CEM
# [33] = test system: HCT-15
# [34] = test system: UACC-62
# [35] = test system: IGROV-1
# [36] = test system: SW-620
# [37] = test system: HL-60
# [38] = test system: MCF7
# [39] = test system: HCT-116
# [40] = test system: M14
# [41] = test system: MDA-N
# [42] = test system: SF-539
# [43] = test system: SR
# [44] = test system: EKVX
# [45] = test system: Malme-3M
# [46] = test system: NCI-H522
# [47] = test system: NCI/ADR-RES
# [48] = test system: ACHN
# [49] = test system: KM12
# [50] = test system: SNB-19
# [51] = test system: A549
# [52] = test system: SK-MEL-28
# [53] = test system: 786-0
# [54] = test system: LOX IMVI
# [55] = test system: NCI-H460
# [56] = test system: UACC-257
# [57] = test system: HOP-62
# [58] = test system: U-251
# [59] = test system: MDA-MB-231
structure (smiles),measurement,setting,value
CC(C)(C)OC(=O)C1C(=O)NC(=O)CC1CC(OCc1ccccc1)C(OCc1ccccc1)C(COCc1ccccc1)OCc1ccccc1 (stereo not drawn),GI50,[1],> 100 µM (inactive)
same,GI50,[2],15 µM (inactive) and 11.1 µM (inactive)
same,GI50,[3],29.3 µM (inactive)
same,GI50,[4],17.5 µM (inactive) and 13 µM (inactive)
same,GI50,[5],35.6 µM (inactive) and 67.8 µM (inactive)
same,GI50,[6],24.8 µM (inactive) and 31.3 µM (inactive)
same,GI50,[7],12 µM (inactive) and 23.8 µM (inactive)
same,GI50,[8],> 100 µM (inactive)
same,GI50,[9],54.8 µM (inactive) and 28.3 µM (inactive)
same,GI50,[10],30.8 µM (inactive) and 54.2 µM (inactive)
same,GI50,[11],4.76 µM (inactive) and 8.24 µM (inactive)
same,GI50,[12],> 100 µM (inactive) and 54 µM (inactive)
same,GI50,[13],24.9 µM (inactive) and 14.6 µM (inactive)
same,GI50,[14],31.6 µM (inactive) and 21.1 µM (inactive)
COc1cc(C2C(Cl)C(=O)N2NC(=O)c2ccc(NC(C)=O)cc2OC)ccc1O (stereo not drawn),GI50,[15],3.96 µM (inactive)
same,GI50,[16],1.94 µM (inactive)
same,GI50,[17],14.5 µM (inactive)
same,GI50,[18],21.8 µM (inactive)
same,GI50,[19],19.4 µM (inactive)
same,GI50,[20],28 µM (inactive)
same,GI50,[21],31.1 µM (inactive)
same,GI50,[22],14.9 µM (inactive)
same,GI50,[23],17.7 µM (inactive)
same,GI50,[24],22.2 µM (inactive)
same,GI50,[25],10.6 µM (inactive)
same,GI50,[26],17.9 µM (inactive)
same,GI50,[27],18.1 µM (inactive)
same,GI50,[28],15.2 µM (inactive)
same,GI50,[1],19.4 µM (inactive)
same,GI50,[29],25.1 µM (inactive)
same,GI50,[30],20.6 µM (inactive)
same,GI50,[2],29.4 µM (inactive)
same,GI50,[31],63.1 µM (inactive)
same,GI50,[3],20.9 µM (inactive)
same,GI50,[4],16 µM (inactive)
same,GI50,[5],13.2 µM (inactive)
same,GI50,[32],2.64 µM (inactive)
same,GI50,[33],19.5 µM
same,GI50,[6],21.4 µM (inactive)
same,GI50,[34],18.1 µM (inactive)
same,GI50,[35],17.5 µM (inactive)
same,GI50,[36],24.7 µM (inactive)
same,GI50,[9],< 0.01 µM (active)
same,GI50,[37],20.3 µM (inactive)
same,GI50,[38],19.3 µM (inactive)
same,GI50,[39],16.9 µM (inactive)
same,GI50,[40],16.3 µM (inactive)
same,GI50,[41],20 µM (inactive)
same,GI50,[42],19.1 µM (inactive)
same,GI50,[43],7.29 µM (inactive)
same,GI50,[11],15.1 µM (inactive)
same,GI50,[44],13.6 µM (inactive)
same,GI50,[45],24.4 µM (inactive)
same,GI50,[46],8.45 µM (inactive)
same,GI50,[47],37.5 µM (inactive)
same,GI50,[48],23.3 µM (inactive)
same,GI50,[12],21.3 µM (inactive)
same,GI50,[49],20.4 µM (inactive)
same,GI50,[50],17.4 µM (inactive)
same,GI50,[51],32.1 µM (inactive)
same,GI50,[13],17.3 µM (inactive)
same,GI50,[52],28.7 µM (inactive)
same,GI50,[53],15.1 µM (inactive)
same,GI50,[14],39.1 µM (inactive)
same,GI50,[54],7.28 µM (inactive)
CC(=O)N[C@@H](Cc1ccc(O)cn1)C(=O)NCc1ccc(Cl)cc1,GI50,[15],> 100 µM (inactive)
same,GI50,[16],> 100 µM (inactive)
same,GI50,[17],> 100 µM (inactive)
same,GI50,[19],> 100 µM (inactive)
same,GI50,[20],> 100 µM (inactive)
same,GI50,[21],> 100 µM (inactive)
same,GI50,[22],> 100 µM (inactive)
same,GI50,[23],> 100 µM (inactive)
same,GI50,[24],> 100 µM (inactive)
same,GI50,[25],> 100 µM (inactive)
same,GI50,[26],> 100 µM (inactive)
same,GI50,[27],> 100 µM (inactive)
same,GI50,[28],> 100 µM (inactive)
same,GI50,[1],> 100 µM (inactive)
same,GI50,[29],> 100 µM (inactive)
same,GI50,[30],> 100 µM (inactive)
same,GI50,[31],> 100 µM (inactive)
same,GI50,[3],94 µM (inactive)
same,GI50,[55],> 100 µM (inactive)
same,GI50,[56],47.5 µM (inactive)
same,GI50,[4],94.4 µM (inactive)
same,GI50,[5],> 100 µM (inactive)
same,GI50,[32],31.5 µM (inactive)
same,GI50,[33],> 100 µM
same,GI50,[6],> 100 µM (inactive)
same,GI50,[57],> 100 µM (inactive)
same,GI50,[34],> 100 µM (inactive)
same,GI50,[35],> 100 µM (inactive)
same,GI50,[36],> 100 µM (inactive)
same,GI50,[8],> 100 µM (inactive)
same,GI50,[9],> 100 µM (inactive)
same,GI50,[37],> 100 µM (inactive)
same,GI50,[58],> 100 µM (inactive)
same,GI50,[10],> 100 µM (inactive)
same,GI50,[38],> 100 µM (inactive)
same,GI50,[39],> 100 µM (inactive)
same,GI50,[40],> 100 µM (inactive)
same,GI50,[41],> 100 µM (inactive)
same,GI50,[42],> 100 µM (inactive)
same,GI50,[11],> 100 µM (inactive)
same,GI50,[44],> 100 µM (inactive)
same,GI50,[45],> 100 µM (inactive)
same,GI50,[46],> 100 µM (inactive)
same,GI50,[47],> 100 µM (inactive)
same,GI50,[48],> 100 µM (inactive)
same,GI50,[12],> 100 µM (inactive)
same,GI50,[49],> 100 µM (inactive)
same,GI50,[50],> 100 µM (inactive)
same,GI50,[51],> 100 µM (inactive)
same,GI50,[13],> 100 µM (inactive)
same,GI50,[52],> 100 µM (inactive)
same,GI50,[53],> 100 µM (inactive)
same,GI50,[14],> 100 µM (inactive)
same,GI50,[54],> 100 µM (inactive)
CCOC(=O)c1c(-c2ccc(OC)cc2)ccn1C,GI50,[59],> 10 µM (inactive)
same,GI50,[15],> 10 µM (inactive)
same,GI50,[17],> 10 µM (inactive)
same,GI50,[18],> 8.41 µM (inactive)
same,GI50,[20],> 10 µM (inactive)
same,GI50,[21],> 10 µM (inactive)
same,GI50,[22],> 10 µM (inactive)
same,GI50,[23],> 10 µM (inactive)
same,GI50,[24],> 10 µM (inactive)
same,GI50,[25],> 10 µM (inactive)
same,GI50,[26],> 10 µM (inactive)
same,GI50,[27],> 10 µM (inactive)
same,GI50,[28],> 10 µM (inactive)
same,GI50,[29],> 10 µM (inactive)
same,GI50,[30],9.1 µM (inactive)
same,GI50,[2],> 10 µM (inactive)
same,GI50,[31],> 10 µM (inactive)
same,GI50,[3],> 10 µM (inactive)
same,GI50,[55],> 10 µM (inactive)
same,GI50,[56],> 10 µM (inactive)
same,GI50,[4],> 10 µM (inactive)
same,GI50,[5],> 10 µM (inactive)
same,GI50,[32],> 10 µM (inactive)
same,GI50,[33],> 10 µM
same,GI50,[6],> 10 µM (inactive)
same,GI50,[57],> 10 µM (inactive)
same,GI50,[34],> 10 µM (inactive)
same,GI50,[7],> 10 µM (inactive)
same,GI50,[35],> 10 µM (inactive)
same,GI50,[36],> 10 µM (inactive)
same,GI50,[8],> 10 µM (inactive)
same,GI50,[9],> 10 µM (inactive)
same,GI50,[58],> 10 µM (inactive)
same,GI50,[10],> 10 µM (inactive)
same,GI50,[38],> 10 µM (inactive)
same,GI50,[39],> 10 µM (inactive)
same,GI50,[40],> 10 µM (inactive)
same,GI50,[42],0.0975 µM (active)
same,GI50,[43],> 10 µM (inactive)
same,GI50,[11],> 10 µM (inactive)
same,GI50,[44],> 10 µM (inactive)
same,GI50,[45],> 10 µM (inactive)
same,GI50,[46],> 9.62 µM (inactive)
same,GI50,[47],> 10 µM (inactive)
same,GI50,[48],> 10 µM (inactive)
same,GI50,[12],> 10 µM (inactive)
same,GI50,[49],> 10 µM (inactive)
same,GI50,[50],> 10 µM (inactive)
same,GI50,[51],> 10 µM (inactive)
same,GI50,[13],> 10 µM (inactive)
same,GI50,[52],4.54 µM (inactive)
same,GI50,[53],> 10 µM (inactive)
same,GI50,[14],> 10 µM (inactive)
same,GI50,[54],0.00227 µM (active)
